Source: patent publication US20230041563A1, “N-(1,3,4-OXADIAZOL-2-YL)ARYLCARBOXAMIDES OR SALTS THEREOF, PREPARATION METHODS, HERBICIDAL COMPOSITIONS AND USES THEREOF” (priority 2018, published 2023)

Experiments:
Assay in all cases: Weeding effect in post-emergence stage (greenhouse pot spray)
Format in all cases: in vivo
Abutilon theophrasti = test system: Abutilon theophrasti
In short: (§1)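 Read-out: fresh-weight growth control rate scored 3 weeks after spraying, mean of three replicates. Plants treated at 2-3 leaf stage by spray tower, doses 500-15 g a.i./ha (500, 250, 125, 60, 15).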

Echinochloa crusgalli = test system: Echinochloa crusgalli
In short: as §1

Digitaria sanguinalis = test system: Digitaria sanguinalis
In short: as §1

Stellaria media = test system: Stellaria media
From the text: (§2) The activity level criteria for plant damage (i.e., growth control rate) are as follows:
(§3) The above growth control rates are fresh weight control rates.
(§4) Experiment on weeding effect in post-emergence stage: monocotyledonous and dicotyledonous weed seeds (Descurainia sophia, Capsella bursa-pastoris, Abutilon theophrasti, Galium aparine, Stellaria media, Lithospermum arvense, rorippa indica, Alopecurus aequalis, Beckmannia syzigachne, Sclerochloa dura, Phleum paniculatum, Bromus japonicus, Aegilops tauschii, Phalaris arundinacea, Amaranthus retroflexus, Chenopodiaceae, Commelina communis, Sonchus arvensis, convolvulus arvensis, Cirsium setosum, Solanum nigrum, Acalypha australis, Digitaria sanguinalis, Echinochloa crusgalli, Setaria viridis, Setaria glauca, Leptochloa chinensis, Monochoria vaginalis, Sagittaria trifolia, Scirpus juncoides, Cyperus rotundus, Cyperus iria, Cyperus difformis, Fimbristylis, Portulaca oleracea, Xanthium sibiricum, Pharbitis nil) and major crop seeds (wheat, corn, rice, soybean, cotton, oilseed rape, millet, sorghum, potato, sesame, ricinus) were placed in plastic pots filled with soil, then covered with 0.5-2 cm of soil, allowed to grow in a good greenhouse environment. After 2 weeks of sowing, the test plants were treated in the 2 to 3 leaf stage. The tested compounds of the present invention were respectively dissolved in acetone, then added with Tween 80 and 1.5 liter/ha of emulsifiable concentrate of methyl oleate as synergist, diluted with a certain amount of water to obtain a solution with a certain concentration, and sprayed with a spray tower onto the plants. After the application, the plants were cultured for 3 weeks in the greenhouse, and then the experimental results of the weeding were counted. The doses of the used compounds were 500, 250, 125, 60, 15 g a.i./ha, and the averages were obtained by repeating for three times.

Amaranthus retroflexus = test system: Amaranthus retroflexus
From the text: as §2, §3, §4

| SMILES | Abutilion theophrasti (activity level) (Abutilon theophrasti; Table 2, dose 500 g a.i./ha) | Echinochloa crusgah (activity level) (Echinochloa crusgalli; Table 2, dose 500 g a.i./ha) | Digitaria sanguinalis (activity level) (Digitaria sanguinalis; Table 2, dose 500 g a.i./ha) | Stellaria media (activity level) (Stellaria media; Table 2, dose 500 g a.i./ha) | Amaranthus retroflexus (activity level) (Amaranthus retroflexus; Table 2, dose 500 g a.i./ha) | Abutilion theophrasti (activity level) (Abutilon theophrasti; Table 2, dose 250 g a.i./ha) | Stellaria media (activity level) (Stellaria media; Table 2, dose 250 g a.i./ha) | Amaranthus retroflexus (activity level) (Amaranthus retroflexus; Table 2, dose 250 g a.i./ha) | Echinochloa crusgah (activity level) (Echinochloa crusgalli; Table 2, dose 250 g a.i./ha) | Digitaria sanguinalis (activity level) (Digitaria sanguinalis; Table 2, dose 250 g a.i./ha) |
| --- | --- | --- | --- | --- | --- | --- | --- | --- | --- | --- |
| COCC[S+]([O-])c1c(C(F)(F)F)ccc(C(=O)Nc2nnco2)c1F (stereo not drawn) [Compound 3-57] | 5 (Level 5: growth control rate is above 85%) | 5 (Level 5: growth control rate is above 85%) | 5 (Level 5: growth control rate is above 85%) | 5 (Level 5: growth control rate is above 85%) | 5 (Level 5: growth control rate is above 85%) |  |  |  |  |  |
| COCCC[S+]([O-])c1c(C(F)(F)F)ccc(C(=O)Nc2nnc(C)o2)c1F (stereo not drawn) [Compound 1-448] | 5 (Level 5: growth control rate is above 85%) | 5 (Level 5: growth control rate is above 85%) | 5 (Level 5: growth control rate is above 85%) | 5 (Level 5: growth control rate is above 85%) | 5 (Level 5: growth control rate is above 85%) |  |  |  |  |  |
| CCC(C)C[S+]([O-])c1c(C(F)(F)F)ccc(C(=O)Nc2nnc(C)o2)c1F (mixture of isomers) [Compound 1-29] | 5 (Level 5: growth control rate is above 85%) | 5 (Level 5: growth control rate is above 85%) | 5 (Level 5: growth control rate is above 85%) | 5 (Level 5: growth control rate is above 85%) | 5 (Level 5: growth control rate is above 85%) |  |  |  |  |  |
| CCCCS(=O)(=O)c1c(C(F)(F)F)ccc(C(=O)Nc2nnc(C)o2)c1F [Compound 1-15] |  |  |  |  |  | 5 (Level 5: growth control rate is above 85%) | 5 (Level 5: growth control rate is above 85%) | 5 (Level 5: growth control rate is above 85%) |  |  |
| Cc1nnc(NC(=O)c2ccc(C(F)(F)F)c(SCC(F)F)c2F)o1 [Compound 1-49] | 5 (Level 5: growth control rate is above 85%) | 5 (Level 5: growth control rate is above 85%) | 5 (Level 5: growth control rate is above 85%) | 5 (Level 5: growth control rate is above 85%) | 5 (Level 5: growth control rate is above 85%) |  |  |  |  |  |
| CC(C)=NOCCSc1c(C(F)(F)F)ccc(C(=O)Nc2nnc(C)o2)c1F [Compound 1-144] | 5 (Level 5: growth control rate is above 85%) | 5 (Level 5: growth control rate is above 85%) |  | 5 (Level 5: growth control rate is above 85%) | 5 (Level 5: growth control rate is above 85%) |  |  |  |  |  |
| O=C(Nc1nnco1)c1ccc(C(F)(F)F)c([S+]([O-])CCC(F)(F)F)c1F (stereo not drawn) [Compound 3-52] | 5 (Level 5: growth control rate is above 85%) | 5 (Level 5: growth control rate is above 85%) | 5 (Level 5: growth control rate is above 85%) | 5 (Level 5: growth control rate is above 85%) | 5 (Level 5: growth control rate is above 85%) |  |  |  |  |  |
| CCC(C)[S+]([O-])c1c(C(F)(F)F)ccc(C(=O)Nc2nnco2)c1F (stereo not drawn) [Compound 3-17] | 5 (Level 5: growth control rate is above 85%) | 5 (Level 5: growth control rate is above 85%) | 5 (Level 5: growth control rate is above 85%) | 5 (Level 5: growth control rate is above 85%) | 5 (Level 5: growth control rate is above 85%) |  |  |  |  |  |
| Cc1nnc(NC(=O)c2ccc(C(F)(F)F)c([S+]([O-])CC(C)(C)C)c2F)o1 (stereo not drawn) [Compound 1-392] | 5 (Level 5: growth control rate is above 85%) | 5 (Level 5: growth control rate is above 85%) | 5 (Level 5: growth control rate is above 85%) | 5 (Level 5: growth control rate is above 85%) | 5 (Level 5: growth control rate is above 85%) |  |  |  |  |  |
| CCSc1c(C(F)(F)F)ccc(C(=O)Nc2nnc(CC)o2)c1F [Compound 2-4] | 5 (Level 5: growth control rate is above 85%) | 5 (Level 5: growth control rate is above 85%) | 5 (Level 5: growth control rate is above 85%) | 5 (Level 5: growth control rate is above 85%) | 5 (Level 5: growth control rate is above 85%) |  |  |  |  |  |
| CC=CC[S+]([O-])c1c(C(F)(F)F)ccc(C(=O)Nc2nnc(C)o2)c1F (stereo not drawn) [Compound 1-398] | 5 (Level 5: growth control rate is above 85%) | 5 (Level 5: growth control rate is above 85%) | 5 (Level 5: growth control rate is above 85%) | 5 (Level 5: growth control rate is above 85%) | 5 (Level 5: growth control rate is above 85%) |  |  |  |  |  |
| Cc1nnc(NC(=O)c2ccc(C(F)(F)F)c(SC(C)C)c2F)o1 [Compound 1-10] |  |  |  |  |  | 5 (Level 5: growth control rate is above 85%) | 5 (Level 5: growth control rate is above 85%) | 5 (Level 5: growth control rate is above 85%) | 5 (Level 5: growth control rate is above 85%) |  |
| Cc1nnc(NC(=O)c2ccc(C(F)(F)F)c([S+]([O-])C(C)(C)C)c2F)o1 (stereo not drawn) [Compound 1-137] | 5 (Level 5: growth control rate is above 85%) | 5 (Level 5: growth control rate is above 85%) | 5 (Level 5: growth control rate is above 85%) | 5 (Level 5: growth control rate is above 85%) | 5 (Level 5: growth control rate is above 85%) |  |  |  |  |  |
| COC(C)C[S+]([O-])c1c(C(F)(F)F)ccc(C(=O)Nc2nnc(C)o2)c1F (stereo not drawn) [Compound 1-447] | 5 (Level 5: growth control rate is above 85%) | 5 (Level 5: growth control rate is above 85%) | 5 (Level 5: growth control rate is above 85%) | 5 (Level 5: growth control rate is above 85%) | 5 (Level 5: growth control rate is above 85%) |  |  |  |  |  |
| CC[S+]([O-])c1c(C(F)(F)F)ccc(C(=O)Nc2nnco2)c1F (stereo not drawn) [Compound 3-5] | 5 (Level 5: growth control rate is above 85%) | 5 (Level 5: growth control rate is above 85%) | 5 (Level 5: growth control rate is above 85%) | 5 (Level 5: growth control rate is above 85%) | 5 (Level 5: growth control rate is above 85%) |  |  |  |  |  |
| CC#CC[S+]([O-])c1c(C(F)(F)F)ccc(C(=O)Nc2nnc(C)o2)c1F (stereo not drawn) [Compound 1-402] |  |  |  |  |  | 5 (Level 5: growth control rate is above 85%) |  | 5 (Level 5: growth control rate is above 85%) | 5 (Level 5: growth control rate is above 85%) | 5 (Level 5: growth control rate is above 85%) |
